These results are taken from patent US5439944A, “Red blood cell substitute emulsions containing alkyl- or alkylglyucerophosphoryl choline surfactants and methods of use” (priority 1993, dated 1995).

Each structure is given as a SMILES string.

One series deals with rat whole blood. The series can be described thus: Hemolysis screening of surfactants. Format: cell-based. The following applies: 5% surfactant in 0.9% saline admixed 1:1 with rat whole blood; visually distinct red hue of supernate. On the procedure: Surfactant Examples 1a-1k according to general Structure I above, and 2a of Structure II above, were prepared following the above procedures.
(§1) Surfactants were screened initially by preparing 5% solutions/dispersions of the surfactant in 0.9% saline and admixing 1:1 with rat whole blood. Centrifugation (6 minutes) at 2400 rpm afforded packed cells and a supernate. […] The discoloration of the supernate was not quantified colorimetrically.

The next series relates to Sprague Dawley rats. The series can be described thus: Preliminary acute toxicity screen. Format: in vivo. The settings on record: 5% sonicated dispersion in 0.9% saline, two Sprague Dawley rats, 14 days.
A short description of series [1]: Perfluorochemical circulatory blood residence time (fluorocrit). It is filed as in vivo, rats. The following applies: perfluorochemical remaining at 48 hours.
Description: The emulsions of Tables II and III were studied in a randomized, ten animal per emulsion experiment in which each animal was infused with 20 cc/Kg of emulsion and sacrificed at 48 hours to determine the circulatory perfluorochemical or perfluorocarbon content called "fluorocrit" and abbreviated "Fct". The Fct represents that percentage of the blood that is perfluorocarbon in v/v %.
After 48 hrs., the animals were anesthetized, the chest cavity was opened, and a blood sample (1-2ml) was withdrawn from the still beating heart. Three to 4 drops of the sample were added to each of three previously tared 4 ml vials containing 10%KOH/EtOH (1.0 ml). The vials were weighed to determine the amount of blood added, then reweighed after an internal standard mixture of 1% octane in CFCl3 (1.5-2.0ml) was added. H2 O was added to the vial until full, then the vial was placed on a rotary shaker at 240 rpm for 20 minutes. The lower layer was withdrawn, and passed through a glass wool plugged pasteur pipette containing silica gel (0.3-0.4g). […] The program parameters specified a hold period at 40° C. for 4 minutes, followed by a 10° C./minute temperature rise until 140° was attained.
A short description of series [2]: Organ distribution 14 days after infusion (Table V). Format: in vivo, rats. The settings on record: for Kidney / Liver / Lung / Spleen / Survival / Hct: 14 days after infusion of 40 cc/Kg; for Hct: hematocrit. The protocol: The impact of the emulsions of Table IV on organ distribution of PFC was then determined by sacrificing the test animals 14 days after infusion.

Series [3] in a line: Organ distribution, additional separate study (Table VI). It is filed as in vivo, rats.
Series [4] in a line: Organ distribution, additional separate study (Table VII). Format: in vivo, rats.
The nature of a further series: Blood hematology. The following applies: Table VIII, accredited outside laboratories. It is filed as in vivo, rats. From the text: The effects on the liver and lung were not as pronounced in Table VI as in Table V. However, with respect to Table VII, it is believed that the smaller values obtained for the liver and spleen are also real.
Series [5] is described as follows: Emulsion mean particle size and stability after 4 days in serum albumin/Lactated Ringer's at 37° C. It is filed as physicochemical. From the text:
The surfactants of Table I were used to make 40 volume % (v/v) perfluorochemical emulsions. In the above described European Pat. Appln. […] Therefore, those perfluorochemical emulsions were used as a control for comparison with the perfluorochemical emulsions of this invention.
For comparison with the data of Table II, the study was repeated with a constant loading of 2 w/v % surfactant, and 2 w/v % safflower oil adjuvant for the control and surfactants of this invention.

The nature of series [6]: Solubility/dispersion of surfactant in 0.9% saline. The following applies: 5% solution/dispersion in 0.9% saline. Format: physicochemical. The protocol:
as §1

For series [7] the following is noted: K. Yokoyama et al; cited from earlier work.

For the compound `CCCCCCCCCCCCCCCCCCOC(COCCCCCCCCCCCCCCCC)COP(=O)([O-])OCC[N+](C)(C)C` (stereo not shown) [Cpd 1h, 1-hexadecyl-2-octadecylglycero-3-phosphoryl choline], in the series on rat whole blood, the Hemolytic entry is recorded as “No”. For the same compound, in the series on Sprague Dawley rats, the “Survival at 40 cc/Kg of 5% solution” value was 0/2.
As for `CCCCCCCCCCCCCCCCCCOCC(COP(=O)([O-])OCC[N+](C)(C)C)OCCCCCCCCCCCCCCCC` (stereo not shown) [Cpd 1j, 1-octadecyl-2-hexadecylglycero-3-phosphoryl choline], the “circulatory blood residence / stability in the circulatory blood system (in words)” value in [1] is “increased stabilities in the circulatory blood system”. In series [2], this compound showed a Kidney of 0.89 g/100 g, a Liver of 6.64 g/100 g, a Lung of 0.57 g/100 g and a Spleen of 1.66 g/100 g. In addition, in series [2], the Survival was 9/10 and the Hct is 44.4 v/v %. For the same compound, the “drop in hematocrit after infusion (in words)” value in series [2] (vs control) is “so striking”. In [3], the Kidney stood at 0.97 g/100 g, the Liver is 7.44 g/100 g, the Lung came out at 0.98 g/100 g and the Spleen was 1.70 g/100 g. Further, the Survival in series [3] is 10/10. Further, the Hct in series [3] (hematocrit) worked out at 36.1 v/v %. In [4], the Kidney is listed as 0.901 g/100 g, the Liver stood at 7.39 g/100 g, the Lung was 0.828 g/100 g and the Spleen was determined as 1.46 g/100 g. Moreover, the Survival in [4] is 10/10. The compound further showed a Hct in series [4] (hematocrit) of 37.7 v/v %. Besides, in the series “Blood hematology”, the Platelets turned out to be 1024222, the RBC worked out at 5.42 and the Reticulocytes is given as 313281. Further, the Hemoglobin in “Blood hematology” (in g/dL (unit assumed)) is listed as 11.04.
As for `CCCCCCCCCCCCCCCCCCOC(COCCCCCCCCCCCCCC)COP(=O)([O-])OCC[N+](C)(C)C` (stereo not shown) [Cpd 1g, 1-tetradecyl-2-octadecylglycero-3-phosphoryl choline], in the series on rat whole blood, the Hemolytic result was “No”. Besides, the “Survival at 40 cc/Kg of 5% solution” value with Sprague Dawley rats is 0/2. In addition, in series [2], the Kidney stood at 0.94 g/100 g, the Liver is listed as 7.52 g/100 g, the Lung turned out to be 0.55 g/100 g and the Spleen is 1.49 g/100 g. Further, in series [2], the Survival is 6/10 and the Hct came to 39.0 v/v %.
Turning to `CCCCCCCCOCC(COP(=O)([O-])OCC[N+](C)(C)C)OCCCCCCCC` (stereo not shown) [Cpd 1a, 1,2-dioctylglycero-3-phosphoryl choline], the Hemolytic result with rat whole blood was “hemolytic and Yes”.
Take `CCCCCCCCCCCCCCCCCCOCC(COP(=O)([O-])OCC[N+](C)(C)C)OCCCCCCCCCCCCCC` (stereo not shown) [Cpd 1f, 1-octadecyl-2-tetradecylglycero-3-phosphoryl choline]: in the series with rat whole blood, the Hemolytic entry is “No”. In addition, the “Survival at 40 cc/Kg of 5% solution” value in the series on Sprague Dawley rats is reported as 2/2. The “circulatory blood residence / stability in the circulatory blood system (in words)” value in series [1] is given as “increased stabilities in the circulatory blood system”.
`CCCCCCCCCCCCCCCCOCC(COP(=O)([O-])OCC[N+](C)(C)C)OCCCCCCCCCCCCCCCC` (stereo not shown) [Cpd 1c, 1,2-dihexadecylglycero-3-phosphoryl choline]: the Hemolytic result in the series on rat whole blood was “No”. In the series on Sprague Dawley rats, the “Survival at 40 cc/Kg of 5% solution” value is on record as 2/2.
`CCCCCCCCCCCCCCCCOC(COCCCCCCCCCCCCCC)COP(=O)([O-])OCC[N+](C)(C)C` (stereo not shown) [Cpd 1k, 1-tetradecyl-2-hexadecylglycero-3-phosphoryl choline]: in [2], the Kidney turned out to be 1.22 g/100 g, the Liver is 7.76 g/100 g, the Lung was determined as 0.64 g/100 g and the Spleen turned out to be 2.09 g/100 g. Also, in series [2], the Survival is recorded as 9/10 and the Hct amounted to 36.5 v/v %.
For the compound `CCCCCCCCCCCCCCCCOCC(COP(=O)([O-])OCC[N+](C)(C)C)OCCCCCCCCCCCCCC` (stereo not shown) [Cpd 1e, 1-hexadecyl-2-tetradecylglycero-3-phosphoryl choline], the Hemolytic result in the series with rat whole blood is “No”. Also, the “Survival at 40 cc/Kg of 5% solution” value in the series with Sprague Dawley rats is listed as 0/2. For the same compound, in series [2], the Kidney amounted to 1.06 g/100 g, the Liver was determined as 7.97 g/100 g, the Lung is given as 0.57 g/100 g and the Spleen was 1.55 g/100 g. For the same compound, in series [2], the Survival is recorded as 9/10 and the Hct came out at 35.8 v/v %.
Turning to `CCCCCCCCCCCCCCOCC(COP(=O)([O-])OCC[N+](C)(C)C)OCCCCCCCCCCCCCC` (stereo not shown) [Cpd 1b, 1,2-ditetradecylglycero-3-phosphoryl choline], the Hemolytic result in the series on rat whole blood is “hemolytic and Yes”.
For `CCCCCCCC/C=C\CCCCCCCCOCC(COP(=O)([O-])OCC[N+](C)(C)C)OCCCCCCCC/C=C\CCCCCCCC` (stereo not shown) [Cpd 1i, 1,2-Dioleylglycerophosphoryl choline], in the series on rat whole blood, the Hemolytic entry was “No”. Besides, the “Survival at 40 cc/Kg of 5% solution” value in the series on Sprague Dawley rats is recorded as 2/2. Moreover, the “Mean Particle Size” value in [5] (Table II, 1.8 w/v % Cpd., 2.0 w/v % oil, 40 v/v % PFC emulsion, sterilized 15 min 121° C.) came out at 304 nM. The “4 days Serum” value in series [5] (Table II, 1.8 w/v % Cpd., 2.0 w/v % oil, particle size after 4 days at 37° C. in serum albumin/Lactated Ringer's) is 258 nM. Besides, in [5] (Table III, 2 w/v % surfactant, 2 w/v % safflower oil), the “Mean Particle Size” value is 323 nM. Moreover, the “4 days Serum” value in series [5] (Table III, 2 w/v % surfactant, 2 w/v % safflower oil, 4 days at 37° C. in serum albumin/Lactated Ringer's) was 301 nM. For the same compound, in [2], the Kidney stood at 0.96 g/100 g, the Liver is given as 7.47 g/100 g, the Lung amounted to 0.64 g/100 g and the Spleen came to 2.56 g/100 g. In series [2], the Survival is recorded as 8/10 and the Hct was 34.7 v/v %.
With `CCCCCCCCCCCCCCCCCCOCC(COP(=O)([O-])OCC[N+](C)(C)C)OCCCCCCCCCCCCCCCCCC` (stereo not shown) [Cpd 1d, 1,2-di-octadecylglycero-3-phosphoryl choline], the Hemolytic result in the series on rat whole blood is “No”. The “Solubility (entry in survival column)” value in series [6] is reported as “insoluble cpd”.
With `FC(F)(F)C(F)(F)C(F)(F)N(C(F)(F)C(F)(F)C(F)(F)F)C(F)(F)C(F)(F)C(F)(F)F` [perfluorotripropylamine], the “half life in the liver and other body tissues (in words)” value in [7] was “longer than desirable”.
